What was measured:
pigweed = assay: Test A pre-/postemergence herbicide test; format: in vivo, Amaranthus retroflexus
How it was run: (§1)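 Visual injury ratings, 0 = no effect, 100 = complete control, taken ~10 days after treatment against untreated greenhouse controls. Preemergence: directed soil spray onto seeded loam/sand pots. Postemergence: spray onto plants at one- to two-leaf stage, 2–10 cm tall.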

foxtail, giant = assay: Test C pre-/postemergence herbicide test; format: in vivo, Setaria faberii
Source text: (§2) Seeds of plant species selected from blackgrass (Alopecurus myosuroides), ryegrass, Italian (Italian ryegrass, Lolium multiflorum), wheat (winter wheat, Triticum aestivum), galium (catchweed bedstraw, Galium aparine), corn (Zea mays), crabgrass, large (large crabgrass, Digitaria sanguinalis), foxtail, giant (giant foxtail, Setaria faberii), johnsongrass (Sorghum halepense), lambsquarters (Chenopodium album), morningglory (Ipomoea coccinea), nutsedge, yellow (yellow nutsedge, Cyperus esculentus), pigweed (Amaranthus retroflexus), ragweed (common ragweed, Ambrosia elatior), soybean (Glycine max), barnyardgrass (Echinochloa crus-galli), oilseed rape (Brassica napus), waterhemp (common waterhemp, Amaranthus rudis), kochia (Kochia scoparia), oat, wild (wild oat, Avena fatua), surinam grass (Brachiaria decumbens), foxtail, green (green foxtail, Setaria viridis), goosegrass (Eleusine indica), bromegrass, downy (downy bromegrass, Bromus tectorum), nightshade (eastern black nightshade, Solanum ptycanthum), cocklebur (common cocklebur, Xanthium strumarium), cupgrass, woolly (woolly cupgrass, Eriochloa villosa), bermudagrass (Cynodon dactylon), sunflower, (common oilseed sunflower, Helianthus annuus), Russian thistle (Salsola kali) and velvetleaf (Abutilon theophrasti) were planted into a blend of loam soil and sand and treated preemergence with test chemicals formulated in a non-phytotoxic solvent mixture which included a surfactant. At the same time, plants selected from these crop and weed species and also barley (winter barley, Hordeum vulgare), […]), chickweed (common chickweed, Stellaria media), deadnettle (henbit deadnettle, Lamium amplexicaule), and canarygrass (littleseed canarygrass, Phalaris minor) were planted in pots containing Redi-Earth® planting medium (Scotts Company, 14111 Scottslawn Road, Marysville, Ohio 43041) comprising spaghnum peat moss, vermiculite, wetting agent and starter nutrients and treated with postemergence applications of test chemicals formulated in the same manner. Plants ranged in height from 2 to 18 cm (1- to 4-leaf stage) for postemergence treatments. Treated plants and controls were maintained in a greenhouse for 13 to 15 days, after which time all species were compared to controls and visually evaluated. Plant response ratings, summarized in Table C, are based on a scale of 0 to 100 where 0 is no effect and 100 is complete control. A dash (-) response means no test result.

corn [1] = assay: Test C pre-/postemergence herbicide test; format: in vivo, Zea mays
Source text: as §2

nutsedge, yellow = assay: Test C pre-/postemergence herbicide test; format: in vivo, Cyperus esculentus
How it was run: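 Pre- and postemergence greenhouse screen. Preemergence treatment went onto freshly planted seeds in loam–sand soil; postemergence treatment went onto plants 2 to 18 cm tall at the 1- to 4-leaf stage in sphagnum peat/vermiculite medium. Scoring at 13 to 15 days used a 0–100 control scale.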

soybean = assay: Test C pre-/postemergence herbicide test; format: in vivo, Glycine max
Source text: as §2

barnyardgrass [2] = assay: Test A pre-/postemergence herbicide test; format: in vivo, Echinochloa crus-galli
How it was run: as §1

barnyardgrass [3] = assay: Test B flooded paddy test; format: in vivo, Echinochloa crus-galli; conditions: 250 g ai/ha, Flood; scale of 0 to 100 where 0 is no effect and 100 is complete control
How it was run: (§3)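 Treatment was made at the 2-leaf stage by dosing the standing floodwater, kept 3 cm above soil level for the whole test. Greenhouse exposure lasted 13 to 15 days. Response is a visual percent rating relative to controls, where a dash indicates no test result.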

ducksalad = assay: Test B flooded paddy test; format: in vivo, Heteranthera limosa; conditions: 250 g ai/ha, Flood; scale of 0 to 100 where 0 is no effect and 100 is complete control
How it was run: as §3

corn [4] = assay: Test A pre-/postemergence herbicide test; format: in vivo, Zea mays
How it was run: as §1

[5] = Postemergence, 125 g ai/ha, 0 to 100 scale, 0 no effect, 100 complete control
[6] = Postemergence, 500 g ai/ha, 0 to 100 scale (0 no effect, 100 complete control)
[7] = Preemergence, 125 g ai/ha, visual rating on 0 to 100 scale (0 no effect, 100 complete control)
[8] = preemergence, 500 g ai/ha, 0 to 100 scale
[9] = Postemergence, 31 g ai/ha, scale 0 (no effect) to 100 (complete control)
[10] = Postemergence, 62 g ai/ha, scale 0 to 100 (0 no effect, 100 complete control)
[11] = Postemergence, 125 g ai/ha, scale 0 to 100 (0 no effect, 100 complete control)
[12] = Postemergence, 250 g ai/ha, scale 0 to 100 (0 no effect, 100 complete control)
[13] = Preemergence, 31 g ai/ha, scale 0 to 100, 0 is no effect and 100 is complete control
[14] = Preemergence, 62 g ai/ha, scale 0 to 100
[15] = Preemergence, 125 g ai/ha, scale 0 to 100 (0 no effect, 100 complete control)

In the case of `O=C1NCC(c2ccccc2)C1C(=O)Nc1ccccc1F` (racemic) [Compound 81], the “Plant response rating, Pigweed” value (pigweed; [5]) is reported as 0, the “Plant response rating, Pigweed” value (pigweed; [6]) is reported as 0 and the “Pigweed plant response rating” value (pigweed; [7]) is reported as 0. For the same compound, the “Plant response rating, Pigweed” value (pigweed; [8]) was 0, the “Plant response rating, Foxtail, Giant” value (foxtail, giant; [9]) was 0 and the “Plant response rating, Foxtail, Giant” value (foxtail, giant; [10]) was 0. For the same compound, the “Plant response rating, Foxtail, Giant” value (foxtail, giant; [11]) was 0, the “Plant response rating, Foxtail, Giant” value (foxtail, giant; [12]) was 7 and the “Foxtail, Giant plant response rating” value (foxtail, giant; [13]) was 0. The “Plant response rating, Foxtail, Giant” value (foxtail, giant; [14]) was 17, the “Plant response rating, Foxtail, Giant” value (foxtail, giant; [15]) was 37 and the “Plant response rating (scale of 0 to 100), Foxtail, Giant” value (foxtail, giant; Preemergence, 250 g ai/ha) was 73. For the same compound, the “Plant response rating, Corn” value (corn [1]; [9]) was 0, the “Plant response rating, Corn” value (corn [1]; [10]) was 0 and the “Plant response rating, Corn” value (corn [1]; [11]) was 0. The “Plant response rating, Corn” value (corn [1]; [12]) was 0, the “Corn plant response rating” value (corn [1]; [13]) was 0 and the “Plant response rating, Corn” value (corn [1]; [14]) was 0. For the same compound, the “Plant response rating, Corn” value (corn [1]; [15]) was 0, the “Plant response rating (scale of 0 to 100), Corn” value (corn [1]; Preemergence, 250 g ai/ha) was 0 and the “Plant response rating, Nutsedge, Yellow” value (nutsedge, yellow; [9]) was 0. The “Plant response rating, Nutsedge, Yellow” value (nutsedge, yellow; [10]) was 0, the “Plant response rating, Nutsedge, Yellow” value (nutsedge, yellow; [11]) was 0 and the “Plant response rating, Nutsedge, Yellow” value (nutsedge, yellow; [12]) was 0. The “Nutsedge, Yellow plant response rating” value (nutsedge, yellow; [13]) was 0, the “Plant response rating, Nutsedge, Yellow” value (nutsedge, yellow; [14]) was 0 and the “Plant response rating, Nutsedge, Yellow” value (nutsedge, yellow; [15]) was 0. For the same compound, the “Plant response rating (scale of 0 to 100), Nutsedge, Yellow” value (nutsedge, yellow; Preemergence, 250 g ai/ha) was 0, the “Plant response rating, Soybean” value (soybean; [9]) was 0 and the “Plant response rating, Soybean” value (soybean; [10]) was 3. The “Plant response rating, Soybean” value (soybean; [11]) was 3, the “Plant response rating, Soybean” value (soybean; [12]) was 8 and the “Soybean plant response rating” value (soybean; [13]) was 0. The “Plant response rating, Soybean” value (soybean; [14]) was 0, the “Plant response rating, Soybean” value (soybean; [15]) was 0 and the “Plant response rating (scale of 0 to 100), Soybean” value (soybean; Preemergence, 250 g ai/ha) was 0. For the same compound, the “Plant response rating, Barnyardgrass” value (barnyardgrass [2]; [5]) was 30, the “Plant response rating, Barnyardgrass” value (barnyardgrass [2]; [6]) was 80 and the “Barnyardgrass plant response rating” value (barnyardgrass [2]; [7]) was 40. The “Plant response rating, Barnyardgrass” value (barnyardgrass [2]; preemergence, 500 g ai/ha, 0 to 100 scale (0 no effect, 100 complete control)) was 80, the “Plant response rating, Barnyardgrass” value (barnyardgrass [3]) was 20 and the “Plant response rating, Ducksalad” value (ducksalad) was 70. For the same compound, the “Plant response rating, Corn” value (corn [4]; [5]) was 0, the “Plant response rating, Corn” value (corn [4]; [6]) was 0 and the “Corn plant response rating” value (corn [4]; [7]) was 0. For the same compound, the “Plant response rating, Corn” value (corn [4]; [8]) was 0.

From patent US10294202B2, “Pyrrolidinones as herbicides” (FMC Corporation, priority 2013, dated 2019)
